# Patent publication US8410309B2, “Phenoxy carboxylic acid compounds and compositions for delivering active agents” (Emisphere Technologies, Inc., priority 1999, dated 2013)
# Values joined by “and” are separate entries in the source; they are usually repeats but may differ in a detail not shown here. Identical values can stand only once. Like-named read-outs stand apart in the source and are kept apart here.
# Assays:
# [1] = rat, in vivo, po, 150 mg/kg
# [2] = Heparin oral/intracolonic delivery, clotting time by activated partial thromboplastin time (APTT); type: in vivo, Sprague-Dawley rats; conditions: rats, baseline about 20 seconds
# Method in brief: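 Heparin sodium with a delivery agent in 25% aqueous propylene glycol, pH about 7, was dosed by oral gavage or intracolonically. Citrated cardiac blood was taken under ketamine (88 mg/kg) at 0.25, 0.5, 1.0 and 1.5 h after dosing. Absorption was read as a rise in APTT clotting time.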
# [3] = Insulin pulmonary delivery, serum insulin by ELISA, ratio to insulin-alone control; type: in vivo, Sprague-Dawley rats; conditions: Table 9 pulmonary delivery, rats; volume 1 ml/kg, delivery agent compound 3 mg/kg, insulin 100 mg/kg (so in the source)
# Protocol: Dosing compositions of delivery agent compound and human insulin in water were prepared. Typically, to 1.5 mg of delivery agent compound was added deionized water to bring the volume to 1.0 ml, and the solution was vortexed. […] The pH was adjusted to between about 7.0 to 8.5 with NaOH or HCl. […] The final delivery agent compound dose, insulin dose and volume dose amounts are listed below in Table 9.
# The typical dosing and sampling protocols were as follows. […] A control group of five animals was dosed insulin alone. A tracheal instillator for rodents, equipped with light (available from Penn Century, Inc., Pittsburgh, Pa.) was filled with dosing solution and inserted down the throat until the needle went into the trachea (confirmed visually). The dosing solution was administered by pressing the plunger.
# Blood samples from each animal were collected serially from the tail artery, typically at 5, 15, 30, 60 and 120 minutes after dosing. […] The ratio of the area under the curve (AUC) for the test group versus that of the control group is reported below. The ratio of the maximum serum insulin concentration (Cmax) for the test group versus that of the control group is also reported below.
# [4] = Interferon oral delivery, serum IFN by immunoassay; type: in vivo, Sprague-Dawley rats; conditions: rats, delivery agent compound 200 mg/kg, IFN 1 mg/kg, 1 ml/kg
# Protocol: Dosing solutions of delivery agent compound and human interferon (IFN) were prepared in deionized water. […] This mixture was vortexed and placed in a sonicator (about 37° C.). The pH was adjusted to about 7.0 to 8.5 with aqueous NaOH. The mixture was vortexed to produce a uniform suspension or solution, also using sonication and heat if necessary.
# (§1) The typical dosing and sampling protocols were as follows.
# Serum IFN concentrations were quantified using Cytoscreen Immunoassay Kit for human IFN-alpha (catalog # KHC4012 from Biosource International, Camarillo, Calif.). Previous studies indicated baseline values of about zero.
# [5] = Low molecular weight heparin (LMWH) oral/intracolonic delivery, plasma LMWH by anti-Factor Xa assay; type: in vivo, Sprague-Dawley rats; conditions: rats
# Method in brief: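 LMWH (parnaparin) plus delivery agent in 25% aqueous propylene glycol, pH about 7, given orally or intracolonically. Citrated blood drawn by cardiac puncture under ketamine (88 mg/kg), typically at 0.5–4.0 h post-dose. Plasma LMWH measured by chromogenic anti-Factor Xa assay; peak of mean plasma concentrations reported.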
# [6] = Insulin oral delivery, serum human insulin by ELISA; conditions: rats
# [7] = Daptomycin oral delivery, plasma daptomycin by HPLC; type: in vivo, Sprague-Dawley rats; conditions: rats, delivery agent compound dose 200 mg/kg, daptomycin dose 50 mg/kg, volume dose 1 mL/kg
# Protocol: Dosing solutions containing a delivery agent compound and daptomycin (Cubist Pharmaceuticals, Cambridge, Mass.) were prepared in 0.9% normal saline. […] This mixture was vortexed and placed in a sonicator (about 37° C.). The pH was adjusted to about 7.0-7.5 with aqueous HCl or NaOH. […] The mixture was vortexed to produce a uniform solution, also using sonication if necessary. The delivery agent compound solution was mixed with daptomycin from a stock solution (200 mg daptomycin/mL in 0.9% normal saline and the pH adjusted, if necessary, to between 6.0-7.0 with NaOH or HCl). The stock solution was stored frozen (−20° C.) wrapped in foil, then thawed and warmed gradually to about 25° C. before using. The delivery agent-daptomycin mixture was vortexed at low speed to produce a uniform solution. The pH was adjusted to about 7.0-7.5 with aqueous NaOH. The solution was then diluted with 0.9% normal saline to the desired volume (usually 2.0 ml) and concentration and stored wrapped in foil before use.
# as §1
# Heparinized rat blood samples were collected via the ventral tail artery, typically at 0.25, 0.5, 0.75, 1.0, 2.0, and 4.0 hours after dosing, and stored on ice. Blood samples were then spun (centrifuged) at 11,500 rpm for 4 minutes at 4° C. to obtain the plasma (supernatant), which was stored at −70° C. The plasma daptomycin concentrations were measured by isocratic reversed phase HPLC, keeping samples at 4° C. during analysis. Blank plasma studies show baseline values of zero.
# Daptomycin blood concentrations results from the individual animals in each dosage group were averaged for each time point.
# [8] = Salmon calcitonin (sCT) oral delivery, serum sCT by EIA; conditions: rats, delivery agent compound dose 50 mg/kg, sCT dose 100 μg/kg
# [9] = Parathyroid hormone (PTH 1-34) oral/intracolonic delivery, serum PTH by radioimmunoassay; conditions: rats, oral (PO); delivery agent compound dose 100 mg/kg, PTH dose 200 μg/kg, volume dose 1 ml/kg
# Protocol: Oral gavage (PO) and/or intracolonic (IC) dosing solutions of delivery agent compound and human parathyroid hormone residues 1-34 (PTH) in deionized water were prepared. A solution of the compound was made either with the sodium salt of the delivery agent compound or by converting the free acid to its sodium salt.
# The typical dosing and sampling protocols were as follows. Male Sprague-Dawley rats weighing between 200-250 g were fasted for 24 hours and administered ketamine (44 mg/kg) and chlorpromazine (1.5 mg/kg) 15 minutes prior to dosing and again as needed to maintain anesthesia. A dosing group of five animals was administered one of the dosing solutions. For oral gavage (PO), an 11 cm Rusch 8 French catheter was adapted to a 1 ml syringe with a pipette tip. The syringe was filled with dosing solution by drawing the solution through the catheter, which was then wiped dry. The catheter was placed down the esophagus leaving 1 cm of tubing past the incisors. The dosing solution was administered by pressing the syringe plunger. For intracolonic (IC) dosing, a 7.5 cm Rusch catheter tube (French 8 or 6) was adapted to a syringe with an Eppendorf pipette tip. The syringe was filled with the dosing solution by drawing the solution through the catheter tube. The catheter tube was wiped dry. K-Y jelly was applied to the tip, avoiding contact with the eye of the tube, and the tube was inserted into the colon through the anus until the tube was no longer visible. The dosing solution was injected by pressing the syringe plunger, and the tube was removed.
# Previous studies indicated baseline values of about zero. Results from the animals in each group were averaged for each time point.
# [10] = IC (intracolonic), delivery agent compound 50 mg/kg, heparin 25 mg/kg, volume dose 1 ml
# [11] = IC, delivery agent compound 50 mg/kg, LMWH 750 IU/kg, 1 ml/kg, 50 mg/kg
structure (smiles),measurement,setting,value
O=C(O)COc1ccccc1O [Compound 3],Mean Peak Serum sCT (pg/ml ± SD) (SE),[1],0 ± 81 pg/mL
same,Mean Peak APTT ± SD,[2]; [10],16.046 ± 0.481 s and 16.984 ± 1.45 s
"O=C(O)CCCCCCCOc1ccccc1O [Compound 7, 8-(2-hydroxyphenoxy)octanoic acid]",melting point,,60 to 64 °C
same,Cmax (serum insulin),[3],130.9724 μU/ml
same,Mean Peak APTT ± SD,[2]; [10],130.5 ± 42.6 s and 92 ± 40.3 s and 99.4 ± 25.5 s
CC(=O)c1ccccc1OCCCCCCCC(=O)O [Compound 12],Mean Peak Serum [IFN] ± SD,[4],1.6362 ± 1.68 ng/mL
same,Mean Peak Plasma LMWH Concentration ± SD,"[5]; IC, delivery agent compound 10 mg/kg, LMWH 750 IU/kg, 1 ml/kg",0.2 ± 0.077 IU/ml
same,Mean Peak Plasma LMWH Concentration ± SD,[5]; [11],1.7 ± 0.308 IU/ml and 1.74 ± 0.304 IU/ml and 2.012 ± 0.124 IU/ml and 1.498 ± 0.462 IU/ml
same,Mean Peak Plasma LMWH Concentration ± SD,"[5]; IC, delivery agent compound 50 mg/kg, LMWH 751 IU/kg, 1 ml/kg",1.5 ± 0.23 IU/ml
same,Mean Peak Plasma LMWH Concentration ± SD,"[5]; PO, delivery agent compound 300 mg/kg, LMWH 3000 IU/kg, 3 ml/kg",0.137 ± 0.18 IU/ml
same,Mean Peak Serum [INS] ± SD,"[6]; delivery agent compound 100 mg/kg, insulin 3 mg/kg, 0.5 ml/kg",205.4 ± 333.4 μU/ml
same,Mean plasma Cmax [daptomycin] ± SD,[7],16110 ± 17580 ng/mL
same,Mean Peak Serum sCT (pg/ml ± SD) (SE),[8]; dose volume 0.5 (ml),445 ± 221 pg/mL
same,Mean Peak Serum sCT (pg/ml ± SD) (SE),[8]; dose volume 1 (ml),316 ± 476 pg/mL
same,Mean Peak Serum [PTH] (pg/mL) ± SD,[9],276 ± 252 pg/mL
same,Mean Peak APTT ± SD,"[2]; PO (oral gavage), delivery agent compound 300 mg/kg, heparin 100 mg/kg, volume dose 3 ml",201.4 ± 45.7 s
"NC(=O)c1ccccc1OCCCCCCCC(=O)O [Compound 30, 8-(2-carboxamidophenoxy)caprylic acid]",Mean Peak Plasma LMWH Concentration ± SD,[5]; [11],0.162 ± 0.094 IU/ml and 0.288 ± 0.152 IU/ml
same,Mean Peak Serum [INS] ± SD,"[6]; delivery agent compound 200 mg/kg, insulin 0.5 mg/kg, 1 ml/kg",21.88 ± 13.4 μU/ml
same,Mean plasma Cmax [daptomycin] ± SD,[7],3060 ± 780 ng/mL
same,Mean Peak Serum [PTH] (pg/mL) ± SD,[9],78 ± 71 pg/mL
same,Mean Peak APTT ± SD,[2]; [10],50.9 ± 20.5 s
